Data reported in PubChem BioAssay (NCI).
Several values for one entry are separate records, joined by “and”; a condition that tells them apart may be missing. Equal entries are not always repeated.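 Values below derive from 48-hour exposures of cells grown in 96-well plates, with endpoints linearly interpolated between the two concentrations bracketing the appropriate inhibition level. GI50 marks 50% less growth. Definition used: TGI = concentration required for complete inhibition of growth.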

Key:
Assay in all cases: growth of human tumour cells (NCI), 48 h
OVCAR-3 ovarian = system: OVCAR-3 ovarian
UACC-62 melanoma = system: UACC-62 melanoma
HOP-62 NSCLC = system: HOP-62 NSCLC
OVCAR-4 ovarian = system: OVCAR-4 ovarian
SNB-19 CNS = system: SNB-19 CNS
LOX IMVI melanoma = system: LOX IMVI melanoma
EKVX NSCLC = system: EKVX NSCLC
SK-MEL-5 melanoma = system: SK-MEL-5 melanoma
RPMI-8226 leukemia = system: RPMI-8226 leukemia
SW-620 colon = system: SW-620 colon
ACHN renal = system: ACHN renal
SN12C renal = system: SN12C renal

Row | SMILES | TGI (OVCAR-3 ovarian) [µM] | TGI (UACC-62 melanoma) [µM] | TGI (HOP-62 NSCLC) [µM] | TGI (OVCAR-4 ovarian) [µM] | TGI (SNB-19 CNS) [µM] | TGI (LOX IMVI melanoma) [µM] | TGI (EKVX NSCLC) [µM] | TGI (SK-MEL-5 melanoma) [µM] | TGI (RPMI-8226 leukemia) [µM] | TGI (SW-620 colon) [µM] | TGI (ACHN renal) [µM] | TGI (SN12C renal) [µM] | GI50 (OVCAR-4 ovarian) | GI50 (EKVX NSCLC)
1 | CCCNCC(O)CNc1ccc(NCC(O)CNCCC)c2c1C(=O)c1ccccc1C2=O (configuration not stated) | 13.7 | 4.95 | 8 | 10.6 | 6.35 | 3.62 | 20.1 | 9.76 | 6.05 | 7.21 | 18.3 | 7.67 | – | –
2 | O=C1CCN2C(=N1)Sc1ccccc12 | > 100 | > 100 | > 100 | > 100 | > 100 | > 100 | > 100 | > 100 | > 100 | > 100 | > 100 | > 100 | – | –
3 | CC[C@@H]1CC[C@@H]2[C@H](CC[C@]3(C)[C@@H](OC(C)=O)CC[C@@H]23)[C@H]1C(=O)OC | 34.4 | 49.4 | 53.7 | 52.8 | 72.4 | 35.6 | 58.6 | 27.7 | 46.5 | 48.8 | > 100 | 69.9 | – | –
4 | COc1ccc2c(c1)-c1nc(=O)n(CCCN(C)C)c3ccc([N+](=O)[O-])c(c13)N2 | 19.4 | 25.2 | 2.39 | 7.34 | 8.58 | 3.24 | 6.45 | 4.4 | 0.694 | > 44.3 | 15 | 13.8 | – | –
5 | Nc1nc(N)c2ncn(-c3ccccc3)c2n1 | > 100 | > 100 | > 100 | > 100 | > 100 | > 100 | > 100 | > 100 | > 100 | > 100 | > 100 | > 100 | 21.8 µM and > 100 µM | 43.3 µM and 89.6 µM
6 | O=C1CCSc2nc(-c3ccc4c(c3)OCO4)nn21 | > 10 | > 10 | > 10 | > 10 | > 10 | > 10 | > 10 | > 10 | > 10 | > 10 | > 10 | > 10 | – | –
7 | CCCn1c(=O)c2nn3c(=O)n(CCC)c(=O)c3nn2c1=O | > 100 | > 100 | > 100 | > 100 | > 100 | > 100 | > 100 | > 100 | > 100 | > 100 | > 100 | > 100 | – | –
8 | COCC12CCC(OC)C34C5CC6(O)C(OC)C=C(C5C6OC(=O)c5ccccc5)C(C(OC)C13)C4N(C)C2 (configuration not stated) | > 100 | > 100 | > 100 | > 100 | > 100 | > 100 | > 100 | > 100 | > 100 | > 100 | > 100 | > 100 | – | –
9 | CO[C@H]1O[C@@H]2OC3(C)CCC4[C@H](C)CCC([C@H]1C)[C@]42OO3 (some centres not stated) | > 100 | > 100 | > 100 | > 100 | > 100 | > 100 | > 100 | > 100 | > 100 | > 100 | > 100 | > 100 | – | –
10 | O=C(NCCc1ccccc1)c1cc(/C=C/c2cc(O)ccc2O)ccc1O | 8.11 | 5.03 | 11.9 | 3.76 | 19.6 | 17.5 | 8.24 | 7.32 | 7.21 | > 45.5 | 5.59 | 19 | – | –
11 | CCCCCC#COC1CC(C)CC[C@@H]1C(C)C (some centres not stated) | > 100 | > 100 | > 100 | > 100 | > 100 | 29.9 | > 100 | > 100 | 69.7 | 34.1 | > 100 | > 100 | – | –
12 | O=C(/C=C/c1ccc(O)c(O)c1)NC(COC(=O)/C=C/c1ccc(O)c(O)c1)C(=O)O (configuration not stated) | > 100 | > 100 | > 100 | > 100 | > 100 | > 100 | > 100 | > 100 | > 100 | > 100 | > 100 | > 100 | – | –
13 | C/C(=C\CNc1ncnc2c1ncn2CCC(=O)OC(C)(C)C)CO | > 100 | > 100 | > 100 | > 100 | > 100 | > 100 | > 100 | > 100 | > 100 | > 100 | > 100 | > 100 | – | –
14 | CC(=O)O[C@H]1CC[C@@]2(C)C(=CC[C@@H]3[C@@H]2CC[C@](C)(c2nnc(C)o2)[C@H]3CC#N)C1 | > 100 | > 100 | > 100 | > 100 | > 100 | > 100 | > 100 | > 100 | > 100 | > 100 | > 100 | > 100 | – | –
15 | CCCCCCCC(CC(=O)NC(CO)C(=O)NC(CO)CC(C)C)OC(=O)CC(CCCCCCC)OC(=O)CC(CCCCCCC)OC1OC(C)C(O)C(OC2OC(C)C(O)C(O)C2O)C1O (configuration not stated) | 26.9 | 27.9 | 35 | 28 | 26.1 | 17.7 | 41.8 | 21.3 | 8.96 | 33.4 | 25.5 | 28.7 | – | –
16 | N#Cc1ccc(C(C2C(=O)NC(=O)NC2=O)C2C(=O)NC(=O)NC2=O)cc1 | > 100 | > 100 | > 100 | > 100 | > 100 | > 100 | > 100 | > 100 | > 100 | > 100 | > 100 | > 100 | – | –
17 | Cc1c(-c2nc(N)c(C#N)c(N)c2C#N)c(=O)oc2ccccc12 | > 100 | > 100 | > 100 | > 100 | > 100 | > 100 | > 100 | > 100 | 62.4 | > 100 | > 100 | > 100 | – | –
18 | CN(C)CCN(C)C(=O)C1CCCN1C(=O)OCc1ccccc1 (configuration not stated) | > 100 | > 100 | > 100 | > 100 | > 100 | > 100 | > 100 | > 100 | > 100 | > 100 | > 100 | > 100 | – | –
19 | CCCCOC(=O)NC(Nc1ccc(S(=O)(=O)Nc2ncccn2)cc1)(C(F)(F)F)C(F)(F)F | > 100 | > 100 | > 100 | > 100 | > 100 | > 100 | > 100 | > 100 | > 100 | > 100 | > 100 | > 100 | – | –
20 | CCOC(=O)/C(=C/c1ccccc1Br)P(=O)(OCC)OCC | 5.46 | 3.29 | 12 | 4.2 | 6.21 | 3.09 | 8.16 | 3.51 | 3.36 | 4.45 | 6 | 5.76 | – | –
21 | Cc1cc(C)c(S(=O)(=O)N(CCCN)OCCON(CCCN)S(=O)(=O)c2c(C)cc(C)cc2C)c(C)c1 | 3.93 | 21.2 | 11.5 | 10.3 | 4.37 | > 100 | 20.6 | > 100 | 6.33 | > 100 | 66.1 | > 100 | – | –
22 | C=CC(=O)NCNC(=O)C=C | > 100 | > 100 | > 100 | > 100 | > 100 | > 100 | > 100 | > 100 | > 100 | > 100 | > 100 | > 100 | – | –
23 | C(=N\NC1=NCCN1)/c1cccc2cc3ccncc3nc12 | 17.1 | 31.4 | 19.7 | 12.3 | 21.4 | 3.39 | 14.9 | 22.9 | 4.44 | 6.91 | 13.6 | 14.9 | – | –
24 | C=C1CC(C)(COc2cc(=O)oc3ccccc23)OC1=O (configuration not stated) | 16.7 | 8.65 | 42.1 | 16.9 | 35.5 | 11.5 | 29.4 | 14.7 | 4.18 | 11.4 | 15.8 | 21.4 | – | –
25 | O=C1C=CC(=O)c2cc(Sc3ccccc3)c(=O)c(Sc3ccccc3)cc21 | > 100 | 81.6 | > 100 | > 100 | > 100 | > 100 | > 100 | > 100 | > 100 | > 100 | 36 | > 100 | – | –
